Values after ≈ are worked out from the molar mass of the structure shown. Values joined by “and” are separate entries in the source; they are usually repeats but may differ in a detail not shown here. Equal values may be shown once. Read-outs that look alike come from different tables or passages of the source.
Legend:
[1] = test system: Coniella granati M0_C2; assay: MIC, micro-spectrophotometric growth assay (phytopathogens); assay type: cell-based; conditions: for growth reduction: C. granati, 48 h of incubation; for MIC: Coniella granati M0_C2, PDB, 24 °C, dark, imazalil at label dose, read-out: Minimum inhibitory concentration (MIC)
[2] = test system: Cryptococcus neoformans B 3501; assay: MIC, broth microdilution (human pathogens); assay type: cell-based; conditions: B3501; Cryptococcus neoformans B 3501; SDB, 30 °C, 48 h; read-out: Minimum inhibitory concentration (MIC)
[3] = test system: Aspergillus brasiliensis ATCC 16404; assay: MIC, broth microdilution (human pathogens); assay type: cell-based; conditions: ATCC16404; Aspergillus brasiliensis ATCC 16404; SDB, 30 °C, 48 h; read-out: Minimum inhibitory concentration (MIC)
[4] = test system: Aspergillus candidus 3; assay: MIC, broth microdilution (human pathogens); assay type: cell-based; conditions: Aspergillus candidus 3; SDB, 30 °C, 48 h; read-out: Minimum inhibitory concentration (MIC)
[5] = test system: Candida albicans 41; assay: MIC, broth microdilution (human pathogens); assay type: cell-based; conditions: Candida albicans 41; SDB, 30 °C, 48 h; read-out: Minimum inhibitory concentration (MIC)
[6] = test system: Candida albicans 40; assay: MIC, broth microdilution (human pathogens); assay type: cell-based; conditions: Candida albicans 40; SDB, 30 °C, 48 h; read-out: Minimum inhibitory concentration (MIC)
[7] = test system: C. albicans 1 (clinically isolated strain); assay: Time-kill curves; assay type: cell-based, Candida albicans; conditions: compound at its MIC value, 0–96 h
[8] = test system: Candida albicans 1; assay: MIC, broth microdilution (human pathogens); assay type: cell-based; conditions: Candida albicans 1; SDB, 30 °C, 48 h; read-out: Minimum inhibitory concentration (MIC)
[9] = test system: Alternaria alternata AL19; assay: MIC, micro-spectrophotometric growth assay (phytopathogens); assay type: cell-based; conditions: for MIC: Alternaria alternata AL19, PDB, 24 °C, dark, imazalil at label dose, read-out: Minimum inhibitory concentration (MIC)
[10] = test system: Candida albicans H; assay: MIC, broth microdilution (human pathogens); assay type: cell-based; conditions: Candida albicans H; SDB, 30 °C, 48 h; read-out: Minimum inhibitory concentration (MIC)
[11] = test system: Candida albicans 2; assay: MIC, broth microdilution (human pathogens); assay type: cell-based; conditions: Candida albicans 2; SDB, 30 °C, 48 h; read-out: Minimum inhibitory concentration (MIC)
[12] = test system: Cryptococcus neoformans ATCC 11240; assay: MIC, broth microdilution (human pathogens); assay type: cell-based; conditions: ATCC11240; Cryptococcus neoformans ATCC 11240; SDB, 30 °C, 48 h; read-out: Minimum inhibitory concentration (MIC)
[13] = test system: Botrytis cinerea B2; assay: MIC, micro-spectrophotometric growth assay (phytopathogens); assay type: cell-based; conditions: for MIC: Botrytis cinerea B2, PDB, 24 °C, dark, imazalil at label dose, read-out: Minimum inhibitory concentration (MIC)
[14] = test system: Cryptococcus 67; assay: MIC, broth microdilution (human pathogens); assay type: cell-based; conditions: Cryptococcus 67; SDB, 30 °C, 48 h; read-out: Minimum inhibitory concentration (MIC)
[15] = test system: Colletotrichum acutatum s.s. M146-2; assay: MIC, micro-spectrophotometric growth assay (phytopathogens); assay type: cell-based, Colletotrichum acutatum sensu stricto; conditions: for MIC: Colletotrichum acutatum s.s. M146-2, PDB, 24 °C, dark, imazalil at label dose, read-out: Minimum inhibitory concentration (MIC)
[16] = test system: Candida albicans ATCC 10321; assay: MIC, broth microdilution (human pathogens); assay type: cell-based; conditions: ATCC10321; Candida albicans ATCC 10321; SDB, 30 °C, 48 h; read-out: Minimum inhibitory concentration (MIC)
[17] = test system: other genera tested (other fungi strains); assay: Agar Disk Diffusion Assay, other genera; assay type: cell-based
Procedure: The antifungal activity of pomegranate compounds was evaluated against 19 clinically isolated fungal strains, including nine belonging to Candida albicans species, two belonging to Aspergillus genus, one belonging to Cryptococcus genus, and one Saccharomyces cerevisiae. The C. albicans strains were isolated on CHROMID agar, Aspergillus and Cryptococcus genus were isolated on SDA-CAF and one Saccharomyces cerevisiae on SDA. All the isolates were confirmed by matrix-assisted laser desorption ionization (MALDI) time-of-flight mass spectrometry (TOF/MS). Strains from the American Type Culture Collection (ATCC) were included. All strains were maintained in SDB with 20% (w/v) glycerol at −80 °C until use and sub-cultured in SDA before each test.
The preliminary determination of the antifungal activity of the target compounds (punicalagin, punicalin, ellagic acid, and gallic acid) from pomegranate was carried out by means of the agar disk diffusion assay, according to the standard procedure of the Clinical and Laboratory Standards Institute, with slight modifications. Plates containing SDA were uniformly spread with 100 μL of 10^3 conidia/mL of each strain suspension. […] Disks containing fluconazole (25 μg), amphotericin B (25 μg) and DMSO (20 μL) were used as the positive and the negative control, respectively. The antifungal activity of pomegranate compounds was evaluated by measuring the diameter of the clear inhibition zone formed right around the disks after 48 h incubation at 30 ± 1 °C. The experiment was carried out in triplicate.

[18] = test system: Candida zeylanoides 33; assay: MIC, broth microdilution (human pathogens); assay type: cell-based; conditions: Dujonia zeylanoides; Candida zeylanoides 33; SDB, 30 °C, 48 h; read-out: Minimum inhibitory concentration (MIC)
[19] = test system: Candida albicans SC 5314; assay: MIC, broth microdilution (human pathogens); assay type: cell-based; conditions: SC5314; Candida albicans SC 5314; SDB, 30 °C, 48 h; read-out: Minimum inhibitory concentration (MIC)
[20] = test system: Candida parapsilosis 7; assay: MIC, broth microdilution (human pathogens); assay type: cell-based; conditions: Lodderomyces parapsilosis; Candida parapsilosis 7; SDB, 30 °C, 48 h; read-out: Minimum inhibitory concentration (MIC)
[21] = test system: Candida parapsilosis; assay: MIC, broth microdilution (human pathogens); assay type: cell-based; conditions: Lodderomyces parapsilosis; Candida parapsilosis; SDB, 30 °C, 48 h; read-out: Minimum inhibitory concentration (MIC)
[22] = test system: Candida albicans 44; assay: MIC, broth microdilution (human pathogens); assay type: cell-based; conditions: Candida albicans 44; SDB, 30 °C, 48 h; read-out: Minimum inhibitory concentration (MIC)
[23] = test system: Aspergillus candidus 25; assay: MIC, broth microdilution (human pathogens); assay type: cell-based; conditions: Aspergillus candidus 25; SDB, 30 °C, 48 h; read-out: Minimum inhibitory concentration (MIC)
[24] = test system: Saccharomyces cerevisiae 42; assay: MIC, broth microdilution (human pathogens); assay type: cell-based; conditions: Saccharomyces cerevisiae 42; SDB, 30 °C, 48 h; read-out: Minimum inhibitory concentration (MIC)
[25] = test system: Candida strains; assay: Agar Disk Diffusion Assay, Candida strains; assay type: cell-based

Row | SMILES | growth reduction [1] | MIC [1] | MIC [2] [µM] | MIC [3] [µM] | MIC [4] [µM] | MIC [5] [µM] | MIC [6] [µM] | time-kill curve (susceptibility time-course) [7] | MIC [8] [µM] | MIC [9] | MIC [10] [µM] | MIC [11] [µM] | MIC [12] [µM] | MIC [13] | MIC [14] [µM] | MIC [15] [µM] | MIC ([15]; S.S.M1462) [µM] | MIC [16] [µM] | MIC [18] [µM] | MIC [19] [µM] | further results
1 | O=C1OC[C@H]2OC(O)[C@H](O)[C@@H](O)[C@@H]2OC(=O)c2cc(O)c(O)c(O)c2-c2c(O)c(O)c3oc(=O)c4c(c(O)c(O)c5oc(=O)c2c3c54)-c2c1cc(O)c(O)c2O (mixture of isomers) [Punicalin, punicalin] | up to 92% | 255.6 µM and 256 µM | 1.9 | 1.9 | 127 | 127 | 127 | after 60 h of incubation, punicalin becomes less effective than punicalagin | 3.8 | 255.6 µM and 256 µM | 1.9 | 3.8 | 1.9 | 255.6 µM and 256 µM | 127 | 255.6 | 256 | 127 | 127 | 127 | growth reduction ([15]; C. acutatum s.s., up to 24 h of incubation): 83%; share of other fungi strains with inhibition zone from 11 to 20 mm ([17]; 100 µg): 63%; MIC [20]: 3.8 µM; MIC [21]: 127 µM; MIC [22]: 127 µM; MIC [23]: 127 µM; MIC [24]: 3.8 µM; share of Candida strains with inhibition zone from 11 to 20 mm ([25]; 100 µg): 91%
2 | O=c1oc2c(O)c(O)cc3c(=O)oc4c(O)c(O)cc1c4c23 [Ellagic Acid, ellagic acid] | up to 60% | 165.4 µM and 165 µM | 331 (≈ 100 µg/mL) | 662 (≈ 200 µg/mL) | 662 (≈ 200 µg/mL) | 331 (≈ 100 µg/mL) | 331 (≈ 100 µg/mL) | lowest activity compared with the other compounds | 5 (≈ 1.51 µg/mL) | 165.4 µM and 165 µM | 331 (≈ 100 µg/mL) | 2.5 (≈ 0.755 µg/mL) | 331 (≈ 100 µg/mL) | 165.4 µM and 165 µM | 662 (≈ 200 µg/mL) | 165.4 (≈ 50 µg/mL) | 165 (≈ 50 µg/mL) | 2.5 (≈ 0.755 µg/mL) | 331 (≈ 100 µg/mL) | 2.5 (≈ 0.755 µg/mL) | antifungal activity (growth curve) ([9]; A. alternata, Figure S3): no or little antifungal activity; antifungal activity (growth curve) ([13]; B. cinerea, Figure S3): no or little antifungal activity; share of other strains with growth inhibition from 21 to 30 mm ([17]; 62.5 µg): 100%; MIC [20]: 331 µM (≈ 100 µg/mL); MIC [21]: 662 µM (≈ 200 µg/mL); MIC [22]: 2.5 µM (≈ 0.755 µg/mL); MIC [23]: 662 µM (≈ 200 µg/mL); MIC [24]: 662 µM (≈ 200 µg/mL); share of Candida strains with inhibition zone from 21 to 30 mm ([25]; 25 μg): 64%; share of Candida tested strains with growth inhibition zone from 11 to 20 mm ([25]; 25 μg): 36%; share of Candida strains with growth inhibition from 21 to 30 mm ([25]; 62.5 µg): 73%

Source: PMC8073005, “Antifungal Activity and DNA Topoisomerase Inhibition of Hydrolysable Tannins from Punica granatum L” (International Journal of Molecular Sciences, 2021)
